# Data: ChEMBL document CHEMBL6087468, “TKK130 is a 3-Hydroxy-Propanamidine (HPA) with Potent Antimalarial In Vivo Activity and a High Barrier to Resistance” (J Med Chem, 2025)
# Experiments:
# [1] = system: Plasmodium berghei; assay: In vivo antiplasmodial activity against Plasmodium berghei infected mouse model assessed as mean survival time at 10 mg/kg, po treated 4 times measured at 96 hrs post infection by fluorescence-activated cell sorting (FACS) analysis (reference value: 4 days); type: functional
# [2] = Cytotoxicity against human HepG2 cells assessed as cell viability measured after 24 hrs by neutral red assay; type: toxicity, cell-based
structure (smiles),measurement,setting,value
Cl.N=C(CC(O)c1cc2c(F)cc(F)cc2c2cc(C(F)(F)F)ccc12)Nc1ccc(F)cc1 (configuration not stated),MSD,[1],28 days
same,IC50 at 24 h,[2],20 µM
